Results on one compound are retold here after patent US10363239B2, “Method for inhibiting growth of cancer cells” (Pain Therapeutics, Inc., priority 2013, dated 2019).

Experiment [1] concerns FLNA-bound K-ras and ras-GAP in lung fibroblasts. Kind of experiment: FLNA-bound K-ras and ras-GAP (immunoprecipitation, Western blotting). Type of experiment: cell-based, human. The protocol:
Thus, melanoma, two different pancreatic cancerous cell lines (MiaPaCa2 and BxPc3) and a glioblastoma cell line (U87) were treated with zero (vehicle), 0.1, 0.5, 1 and 5 nM Compound C0105 as previously discussed, and FLNA-bound K-ras and ras-GAP were immunoprecipitated, separated by Western blotting and the blot densities determined as discussed previously.
To study the effect of Compound C0105 on pS^2152FLNA levels, FLNA linkages to key regulators including protein phosphatases as well as activated Akt (pS^473-, pT^308-Akt), mTOR (pS^2442mTOR) and ERK (pY/pT-ERK) levels, the cancer and normal cells were cultured to approximately 90% confluency and treated with vehicle or varying concentrations of Compound C0105. […]
The cell lysates were diluted 5-fold with immunoprecipitation buffer and immunoprecipitated with anti-FLNA, -Akt, -mTOR and -ERK2 as described previously [Talbot et al., J Clin Inv 122(4):1-23 (2012); Wang et al., J Neurosci 32(29):9773-9784 (2012)]. The levels of FLNA linkages, activated phosphorylated Akt (pS^473 and pT^308), phosphorylated mTOR (pS^2448) and phosphorylated ERK2 (pY/pT) were determined in anti-FLNA, -Akt, -mTOR and -ERK2 immunoprecipitates by Western blotting with appropriate antibodies directed against PTEN, PP2A, K-RAS, ras-GAP (FLNA linkages), pS^473Akt, pT^308Akt, pS^2448mTOR and pY/pT ERK2 (activation of Akt, mTOR and ERK2). […]
A general note: Immunoblotting shows a protein as a band on a membrane.

Experiment [2] concerns primary human pancreatic epithelial cells. Kind of experiment: [3H]glucose uptake. The format is cell-based. The following applies: 0.1-5 nM; 4 days. As for the experimental part:
(§1) FIG. 1A through FIG. 1M illustrate the effects of various FLNA-binding compounds on glucose uptake in glioblastoma, melanoma, breast and pancreatic cancer cell lines, along with appropriate non-cancerous primary cell controls. Cells were grown in the absence or presence of 0.1-5 nM indicated compounds for 4 days. Following brief washes with PBS, cells were serum-deprived for 4 hours and then incubated in oxygenated Kreb's Ringer containing 0.1 μCi [^3H]glucose for 2 hours under constant oxygenation. The reaction was terminated by removal of the incubation medium, and cells were washed and scraped off to determine the amounts of [^3H]glucose in cells by scintillation spectrometry. […] N=5-6. […] . […] . To determine the effect of Compound C0105 on glucose utilization, the cancer and primary normal cells were plated extremely thinly (10%). Once cells attached, Compound C0105 was added at 0.1, 0.5, 1 or 5 nM in the medium twice daily (6 hours apart) for 4 days. The cells were serum-deprived (glucose deprived) for 2 hours. Cells were then rinsed with 1 ml PBS and glucose uptake was assessed by contacting the cells with [^3H]glucose (0.01 uCi/l ml) in Kreb's Ringer for 2 hours. Cells were then rinsed with 1 ml PBS 3 times, scraped off and their glucose content counted by liquid scintillation spectrophotometry.

Experiment [3] deals with human mammalian epithelial cells (HMEC). Nature of the experiment: [3H]glucose uptake. The format is cell-based. The following applies: 0.1-5 nM; 4 days. As for the experimental part: as §1
In experiment [4] the test system is primary human mammary epithelial cells (HMECs). Kind of experiment: Cell proliferation by cell-cycling markers Ki67 and PCNA (Western blots). Type of experiment: cell-based. Conditions: 0.1-5 nM; 4 days. The protocol: The effect of contact with Compound C0105 on cell proliferation was determined by the levels of cell-cycling markers: Ki67 and PCNA using Western blots in HTB-22 and control human mammary epithelial cells (HMECs). Cells treated with vehicle and 0.1-5 nM Compound C0105 for 4 days were collected, washed and solubilized. The resultant cell lysates were size-fractionated on SDS-PAGE and Western blotting to determine the levels of Ki67, PCNA and actin (loading control). The protein bands were quantified using densitometric scanning.
The effect of C0105 on cell proliferation was determined by the levels of cell-cycling markers Ki67 and PCNA using Western blots in HTB-22 and control HMECs. Cells contacted with vehicle and 0.1-5 nM Compound C0105 for 4 days were collected, washed and solubilized. […] The protein bands were quantified using densitometric scanning. […]
To study the effect of Compound C0105 on PI3K activity, the cancer and primary normal cells were cultured to approximately 60-70% confluency, serum deprived for 4 hours, briefly washed with PBS and treated with vehicle or 0.1, 0.5, 1 or 5 nM Compound C0105 for 24 hours with in 0.1% FBS-containing culture medium. […] The cell pellets were sonicated in ice-cold immunoprecipitation buffer and protein concentrations measured by the Bradford method. […]

As to `CN1CCC2(CC1)NCC(=O)N2Cc1ccccc1` [Compound C0105], the “FLNA-associated K-ras and ras-GAP” value in experiment [1] is listed as “had no effect on fibroblasts”. For the same compound, the Basal glucose uptake result in experiment [2] is “no effect”; in experiment [3] it was “no change”. Also, the “Cell proliferation (Ki67 and PCNA levels)” value in experiment [4] was “had no effect”.
